Reference: US20050100529A1, “Methods of using and compositions comprising immunomodulatory compounds for the treatment and management of asbestos-related diseases and disorders” (priority 2003, published 2005)

Columns and labels:
[1] = test system: TNF-α; test: Inhibition of TNF-α production following LPS-stimulation of human PBMC; type: cell-based; details: for IC50: human PBMC, LPS-stimulated, in vitro, read-out: IC50 for inhibiting production of TNF-α following LPS-stimulation of PBMC
Description: (§1) In a specific embodiment, inhibitions of TNF-α production following LPS-stimulation of human PBMC and human whole blood by 3-(4-amino-1-oxo-1,3-dihydro-isoindol-2-yl)-piperidine-2,6-dione, 4-(amino)-2-(2,6-dioxo-(3-piperidyl))-isoindoline-1,3-dione or thalidomide were investigated in vitro.

[2] = test system: IL10; test: LPS-stimulated production of IL10 by PBMC; type: cell-based
[3] = test system: mesothelioma patients; test: Clinical studies in unresectable or relapsed mesothelioma patients; type: in vivo, human; details: 10 mg as a continuous oral daily dose
Experimental: Clinical trials with the administration of an immunomodulatory compound in an amount of from about 1 mg to about 1,000 mg, from about 1 mg to about 500 mg, or from about 1 mg to about 250 mg per day are conducted in patients with asbestosis, malignant mesothelioma, or malignant pleural effusion mesothelioma syndrome. In a specific embodiment, patients receive about 1 mg to about 150 mg/day of 3-(4-amino-1-oxo-1,3-dihydro-isoindol-2-yl)-piperidine-2,6-dione alone or in combination with vinorelbine. Patients who experience clinical benefit are permitted to continue on treatment.
Other clinical studies are performed using 3-(4-amino-1-oxo-1,3-dihydro-isoindol-2-yl)-piperidine-2,6-dione in unresectable or relapsed mesothelioma patients that have not responded to conventional therapy. In one embodiment, 3-(4-amino-1-oxo-1,3-dihydro-isoindol-2-yl)-piperidine-2,6-dione is administered in an amount of about 1 mg to about 150 mg/day to the patients. Treatment with 10 mg as a continuous oral daily dose is well-tolerated.

[4] = test system: IL6; test: LPS-stimulated production of IL6 by PBMC; type: cell-based
[5] = test system: IL1β; test: LPS-stimulated production of IL1β by PBMC; type: cell-based
[6] = test system: TNF-α; test: Inhibition of TNF-α production following LPS-stimulation of human whole blood; type: cell-based; details: LPS-stimulated, in vitro, read-out: IC50 for inhibiting production of TNF-α following LPS-stimulation of human whole blood
Description: as §1

[7] = solvent systems, humidity or heating as worded; cited from earlier work
[8] = crystalline polymorph of 3-(4-amino-1-oxo-1,3 dihydro-isoindol-2-yl)-piperidine-2,6-dione; cited from earlier work

| Compound | IC50 [1] | IC50 ([1]; same value in mass units) | Stability / interconversion of the polymorphic form [7] | Hygroscopicity [8] | also measured |
| --- | --- | --- | --- | --- | --- |
| O=C1CCC(N2C(=O)c3ccccc3C2=O)C(=O)N1 (racemic) [Thalidomide, thalidomide, reference compound] | ~194000 nM | ~50.1 µg/mL | – | – | – |
| Nc1cccc2c1CN(C1CCC(=O)NC1=O)C2=O (stereo not drawn) [3-(4-amino-1-oxo-1,3-dihydro-isoindol-2-yl)-piperidine-2,6-dione] | ~100 nM | ~0.0259 µg/mL | – | – | Effect on production of the anti-inflammatory cytokine IL10 [2]: increased production; Tolerability [3]: well-tolerated; Effect on LPS-stimulated production of IL6 by PBMC [4]: dose-dependent inhibition; Effect on LPS-stimulated production of TNF-α by PBMC [1]: dose-dependent inhibition; Effect on LPS-stimulated production of IL1β by PBMC [5]: dose-dependent inhibition; IC50 [6]: ~480 nM; IC50 ([6]; same value in mass units): ~0.104 µg/mL |
| Nc1cccc2c1C(=O)N(C1CCC(=O)NC1=O)C2=O (stereo not drawn) [4-(amino)-2-(2,6-dioxo(3-piperidyl))-isoindoline-1,3-dione] | ~24 nM | ~0.00655 µg/mL | – | – | Effect on production of the anti-inflammatory cytokine IL10 [2]: increased production; Effect on LPS-stimulated production of IL6 by PBMC [4]: dose-dependent inhibition; Effect on LPS-stimulated production of TNF-α by PBMC [1]: dose-dependent inhibition; Effect on LPS-stimulated production of IL1β by PBMC [5]: dose-dependent inhibition; IC50 [6]: ~25 nM; IC50 ([6]; same value in mass units): ~0.00683 µg/mL |
| Nc1cccc2c1CN(C1CCC(=O)NC1=O)C2=O (stereo not drawn) [Form A, 3-(4-amino-1-oxo-1,3 dihydro-isoindol-2-yl)-piperidene-2,6-dione] | – | – | most thermodynamically stable anhydrous polymorph | weakly or not hygroscopic | – |
| Nc1cccc2c1CN(C1CCC(=O)NC1=O)C2=O (stereo not drawn) [Form B, 3-(4-amino-1-oxo-1,3 dihydro-isoindol-2-yl)-piperidene-2,6-dione] | – | – | converts to Form E in aqueous solvent systems | – | – |
| Nc1cccc2c1CN(C1CCC(=O)NC1=O)C2=O (stereo not drawn) [Form C, 3-(4-amino-1-oxo-1,3 dihydro-isoindol-2-yl)-piperidene-2,6-dione] | – | – | can convert to Form B at higher relative humidities | not hygroscopic below about 85% RH | – |
| Nc1cccc2c1CN(C1CCC(=O)NC1=O)C2=O (stereo not drawn) [Form D, 3-(4-amino-1-oxo-1,3 dihydro-isoindol-2-yl)-piperidene-2,6-dione] | – | – | convert to Form B when stressed at higher relative humidities | either weakly or not hygroscopic | – |
| Nc1cccc2c1CN(C1CCC(=O)NC1=O)C2=O (stereo not drawn) [Form E, 3-(4-amino-1-oxo-1,3 dihydro-isoindol-2-yl)-piperidene-2,6-dione] | – | – | In aqueous solvent systems, Form E appears to be the most stable form | – | – |
